# Reference: patent publication US10329289B2, “6,7-dihydro-5H-pyrrolo[3,4-B]pyridin-5-one allosteric modulators of the M4 muscarinic acetylcholine receptor” (Merck Sharp & Dohme Corp., priority 2015, dated 2019)
# pEC50: −log10 of the molar value.
# Target: T1, human M4 muscarinic acetylcholine receptor (Homo sapiens, UniProt P08173)
# T1 construct: expressed in transfected cells; host or cells: CHO-K1
# T1 sequence (P08173 1-479): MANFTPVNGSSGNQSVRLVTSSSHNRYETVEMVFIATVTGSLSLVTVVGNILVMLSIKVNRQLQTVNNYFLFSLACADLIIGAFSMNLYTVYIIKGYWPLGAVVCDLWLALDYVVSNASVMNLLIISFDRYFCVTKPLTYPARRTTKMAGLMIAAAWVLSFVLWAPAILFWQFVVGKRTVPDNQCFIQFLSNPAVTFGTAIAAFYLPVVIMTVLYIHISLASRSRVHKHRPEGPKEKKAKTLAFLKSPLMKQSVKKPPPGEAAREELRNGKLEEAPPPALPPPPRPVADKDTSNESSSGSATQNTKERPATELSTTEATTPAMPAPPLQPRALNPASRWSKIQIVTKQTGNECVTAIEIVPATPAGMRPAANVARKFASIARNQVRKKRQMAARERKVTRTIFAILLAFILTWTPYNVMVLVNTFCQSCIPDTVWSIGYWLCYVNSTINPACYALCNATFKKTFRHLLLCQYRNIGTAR
# Test: human FLIPR-based M4 PAM assay (Ca2+ mobilization, CHO-K1 cells with human M4 receptor and Gαqi5)
# Format: cell-based
# Details: acetylcholine at 20% of maximum response, read-out: M4 PAM IP
# Method in brief: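 CHO-K1 cells stably expressing human M4 and chimeric Gαqi5 were dye-loaded ~1 h at 37 °C and read for Ca2+ fluorescence. Compound followed by acetylcholine at an EC20 (sometimes an EC70 third addition); inflection point from a 4-parameter logistic fit.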
row,SMILES,pEC50
1,"Cc1cc2c(nc1N1CCC(OCC3(C#N)CC3)CC1)CNC2=O [Example 36, 1-(((1-(3-methyl-5-oxo-6,7-dihydro-5H-pyrrolo[3,4-b]pyridin-2-yl)piperidin-4-yl)oxy)methyl)cyclo-propane-1-carbonitrile]",6.52
2,"Cc1cc2c(nc1N1CCC(Oc3ccc(OC4CCC4)nc3)CC1)CNC2=O [Example 37, 2-(4-((6-cyclobutoxypyridin-3-yl)oxy)piperidin-1-yl)-3-methyl-6,7-dihydro-5H-pyrrolo[3,4-b]pyridin-5-one]",6.76
3,"Cc1cc2c(nc1N1CC[C@@H](Oc3cccc4c3COC4)[C@@H](F)C1)CNC2=O [Example 39, 2-((3S,4R)-4-((1,3-dihydro-2-benzofuran-4-yl)oxy)-3-fluoropiperidin-1-yl)-3-methyl-6,7-dihydro-5H-pyrrolo[3,4-b]pyridin-5-one]",5.80
4,"Cc1cc2c(nc1N1CCC(OC3CCOC3)CC1)CNC2=O (stereo not drawn) [Example 41, 3-methyl-2-(4-((tetrahydrofuran-3-yl)oxy)piperidin-1-yl)-6,7-dihydro-5H-pyrrolo[3,4-b]pyridin-5-one]",4.95
5,"Cc1cc2c(nc1N1CCC(OC3CCOCC3)CC1)CNC2=O [Example 42, 3-methyl-2-(4-((tetrahydro-2H-pyran-4-yl)oxy)piperidin-1-yl)-6,7-dihydro-5H-pyrrolo[3,4-b]pyridin-5-one]",5.76
6,"Cc1cc2c(nc1N1CC[C@@H](Oc3cccc(C#N)c3)[C@H](O)C1)CNC2=O [Example 43A, 3-(((3R,4R)-3-hydroxy-1-(3-methyl-5-oxo-6,7-dihydro-5H-pyrrolo[3,4-b]pyridin-2-yl)piperidin-4-yl)oxy)benzonitrile]",6.81
7,"Cc1cc2c(nc1N1CC[C@H](Oc3cccc(C#N)c3)[C@@H](O)C1)CNC2=O [Example 43B, 3-(((3S,4S)-3-hydroxy-1-(3-methyl-5-oxo-6,7-dihydro-5H-pyrrolo[3,4-b]pyridin-2-yl)piperidin-4-yl)oxy)benzonitrile]",6.44
8,"Cc1cc2c(nc1N1CCC(Oc3ccc4c(c3)CCC4)CC1)CNC2=O [Example 44, 2-(4-((2,3-dihydro-1H-inden-5-yl)oxy)piperidin-1-yl)-3-methyl-6,7-dihydro-5H-pyrrolo[3,4-b]pyridin-5-one]",6.89
9,"Cc1cc2c(nc1N1CCC(Oc3cccc(S(C)(=O)=O)c3)CC1)CNC2=O [Example 47A, 3-methyl-2-(4-(3-(methylsulfonyl)phenoxy)piperidin-1-yl)-6,7-dihydro-5H-pyrrolo[3,4-b]pyridin-5-one]",6.54
10,"Cc1cc2c(nc1N1CCC(Oc3cncc(C#N)c3)CC1)CNC2=O [Example 50, 5-((1-(3-methyl-5-oxo-6,7-dihydro-5H-pyrrolo[3,4-b]pyridin-2-yl)piperidin-4-yl)oxy)nicotinonitrile]",6.18
11,"Cc1cc2c(nc1N1CCC(Oc3cnc4c(c3)COCC4)CC1)CNC2=O [Example 52, 2-(4-((7,8-dihydro-5H-pyrano[4,3-b]pyridin-3-yl)oxy)piperidin-1-yl)-3-methyl-6,7-dihydro-5H-pyrrolo[3,4-b]pyridin-5-one]",6.62
12,"Cc1cc2c(nc1N1CCC(Oc3cnc4c(c3)COCC4)CC1)CN(C)C2=O [Example 53, 2-(4-((7,8-dihydro-5H-pyrano[4,3-b]pyridin-3-yl)oxy)piperidin-1-yl)-3,6-dimethyl-6,7-dihydro-5H-pyrrolo[3,4-b]pyridin-5-one]",6.35
13,"CCOCCOC1CCN(c2nc3c(cc2C)C(=O)NC3)CC1 [Example 54, 2-(4-(2-ethoxyethoxy)piper-idin-1-yl)-3-methyl-6,7-dihydro-5H-pyrrolo[3,4-b]pyridin-5-one]",5.06
14,"CCOC1CCN(c2nc3c(cc2C)C(=O)NC3)CC1 [Example 55, 2-(4-ethoxypiperidin-1-yl)-3-methyl-6,7-dihydro-5H-pyrrolo[3,4-b]pyridin-5-one]",5.95
15,"COCCOC1CCN(c2nc3c(cc2C)C(=O)NC3)CC1 [Example 56, 2-(4-(2-methoxyethoxy)piperidin-1-yl)-3-methyl-6,7-dihydro-5H-pyrrolo[3,4-b]pyridin-5-one]",4.95
16,"COCCOCc1cccc(OC2CCN(c3nc4c(cc3C)C(=O)NC4)CC2)c1 [Example 58, 2-(4-(3-((2-methoxyethoxy)meth-yl)phenoxy)piperi-din-1-yl)-3-methyl-6,7-dihydro-5H-pyrrolo[3,4-b]pyridin-5-one]",6.72
17,"Cc1cc2c(nc1N1CCC(Oc3cnc4c(c3)CCC4)CC1)CNC2=O [Example 59, 2-(4-((6,7-dihydro-5H-cyclopenta[b]pyridin-3-yl)oxy)piperidin-1-yl)-3-methyl-6,7-dihydro-5H-pyrrolo[3,4-b]pyridin-5-one]",6.91
18,"COCCOc1ccc(O[C@@H]2CCN(c3nc4c(cc3C)C(=O)NC4)C[C@H]2F)cn1 [Example 60, 2-((3R,4R)-3-fluoro-4-((6-(2-methoxyethoxy)pyridin-3-yl)oxy)piperidin-1-yl)-3-methyl-6,7-dihydro-5H-pyrrolo[3,4-b]pyridin-5-one]",6.68
19,"Cc1cc2c(nc1N1CCC(OCc3ccccc3)CC1)CNC2=O [Example 63, 2-(4-(benzyloxy)piperidin-1-yl)-3-methyl-6,7-dihydro-5H-pyrrolo[3,4-b]pyridin-5-one]",6.84

# Molecules with a higher pEC50, results first:
row,pEC50,SMILES
1,7.03,"Cc1cc2c(nc1N1CCC(Oc3cnc4c(c3)COC4)CC1)CN(C)C2=O [Example 49, 2-(4-((5,7-dihydrofuro[3,4-b]pyridin-3-yl)oxy)piperidin-1-yl)-3,6-dimethyl-6,7-dihydro-5H-pyrrolo[3,4-b]pyridin-5-one]"
2,7.17,"Cc1cc2c(nc1N1CC[C@@H](Oc3cnc4c(c3)COC4)[C@H](F)C1)CNC2=O [Example 48A, 2-((3R,4R)-4-((5,7-dihydrofuro[3,4-b]pyridin-3-yl)oxy)-3-fluoropiperidin-1-yl)-3-methyl-6,7-dihydro-5H-pyrrolo[3,4-b]pyridin-5-one]"
3,7.21,"Cc1cc2c(nc1N1CCC(Oc3cnc4c(c3)COC4)CC1)CNC2=O [Example 48, 2-(4-((5,7-dihydrofuro[3,4-b]pyridin-3-yl)oxy)piperidin-1-yl)-3-methyl-6,7-dihydro-5H-pyrrolo[3,4-b]pyridin-5-one]"
4,7.21,"COCc1cccc(OC2CCN(c3nc4c(cc3C)C(=O)NC4)CC2)c1 [Example 57, 2-(4-(3-(methoxymethyl)phenoxy)piperidin-1-yl)-3-methyl-6,7-dihydro-5H-pyrrolo[3,4-b]pyridin-5-one]"
5,7.26,"Cc1cc2c(nc1N1CCC(Oc3ccc(OC(C)C)nc3)CC1)CNC2=O [Example 62, 2-(4-((6-isopropoxypyridin-3-yl)oxy)piperidin-1-yl)-3-methyl-6,7-dihydro-5H-pyrrolo[3,4-b]pyridin-5-one]"
6,7.28,"Cc1cc2c(nc1N1CC[C@@H](Oc3cccc(C#N)c3)[C@@H](F)C1)CN(C)C2=O [Example 45, 3-(((3S,4R)-1-(3,6-dimethyl-5-oxo-6,7-dihydro-5H-pyrrolo[3,4-b]pyridin-2-yl)-3-fluoropiperidin-4-yl)oxy)benzonitrile]"
7,7.29,"COc1cccc(OC2CCN(c3nc4c(cc3C)C(=O)NC4)CC2)c1 [Example 51, 2-(4-(3-methoxyphenoxy)piperidin-1-yl)-3-methyl-6,7-dihydro-5H-pyrrolo[3,4-b]pyridin-5-one]"
8,7.39,"COc1ccc(OC2CCN(c3nc4c(cc3C)C(=O)NC4)CC2)cc1 [Example 47, 2-(4-(4-methoxyphenoxy)piperidin-1-yl)-3-methyl-6,7-dihydro-5H-pyrrolo[3,4-b]pyridin-5-one]"
9,7.49,"Cc1cc2c(nc1N1CC[C@@H](Oc3ccc4c(c3)COC4)[C@@H](F)C1)CN(C)C2=O [Example 46, 2-((3S,4R)-4-((1,3-dihydro-2-benzofuran-5-yl)oxy)-3-fluoropiperidin-1-yl)-3,6-dimethyl-6,7-dihydro-5H-pyrrolo[3,4-b]pyridin-5-one]"
10,7.52,"Cc1cc2c(nc1N1CCC(Oc3ccc4c(c3)COC4)CC1)CN(C)C2=O [Example 38, 2-(4-((1,3-dihydro-2-benzofuran-5-yl)oxy)piperidin-1-yl)-3,6-dimethyl-6,7-dihydro-5H-pyrrolo[3,4-b]pyridin-5-one]"
11,7.59,"CCOc1ccc(OC2CCN(c3nc4c(cc3C)C(=O)NC4)CC2)cn1 [Example 34, 2-(4-((6-ethoxypyridin-3-yl)oxy)piperidin-1-yl)-3-methyl-6,7-dihydro-5H-pyrrolo[3,4-b]pyridin-5-one]"
12,7.62,"Cc1cc2c(nc1N1CC[C@@H](Oc3ccccc3)[C@@H](F)C1)CNC2=O [Example 35, 2-((3S,4R)-3-fluoro-4-phenoxypiperidin-1-yl)-3-methyl-6,7-dihydro-5H-pyrrolo[3,4-b]pyridin-5-one]"
13,7.66,"COc1ccc(O[C@@H]2CCN(c3nc4c(cc3C)C(=O)N(C)C4)C[C@@H]2F)cn1 [Example 33, 2-((3S,4R)-3-fluoro-4-((6-methoxypyridin-3-yl)oxy)piperidin-1-yl)-3,6-dimethyl-6,7-dihydro-5H-pyrrolo[3,4-b]pyridin-5-one]"
14,7.77,"Cc1cc2c(nc1N1CC[C@@H](Oc3ccc4c(c3)COC4)[C@@H](F)C1)CNC2=O [Example 40, 2-((3S,4R)-4-((1,3-dihydro-2-benzofuran-5-yl)oxy)-3-fluoropiperidin-1-yl)-3-methyl-6,7-dihydro-5H-pyrrolo[3,4-b]pyridin-5-one]"
